# Assays:
# Assay type in all cases: in vivo, BALB/c nude mice
# gastric cancer (NCI-N87) = test: Treatment efficacy of combined RIT using losartan and ^64Cu-TRZ; details: compared to the control (PBS); losartan 60 mg/kg s.c. for 25 days; FIG. 5A
# Experimental: To identify gastric cancer (NCI-N87) treatment efficacy of the combined therapy using losartan and trastuzumab, the groups were classified into ^64Cu-TRZ treated group (n=7), losartan-included ^64Cu-TRZ treated group (n=7), losartan solely treated group (n=6), TRZ solely treated group (n=6), and PBS treated group (n=8). […] Losartan was delivered subcutaneously (60 mg/kg for 25 days), and TRZ (150 μg) was injected intravenously once at the start of treatment.
# collagen = test: Masson trichrome staining of collagen in gastric cancer tissue; details: gastric cancer tumor tissue; versus control; FIG. 3A
# Experimental: Masson trichrome staining was performed for histological visualization of collagen, an extracellular component, which is considered as a disorder when TRZ travels. Tumor tissues were obtained by sacrificing animals. The obtained tissues were fixed overnight in 4% paraformaldehyde and transferred to OCT compounds (Sakura Finetec, USA). The tissues were sectioned to a thickness of 40 μm. Staining was performed according to the kit protocol (Abcam (www.abcam.com) ab150686).
# Bouin's Fluid was applied to each section and cultured overnight at room temperature. The slides were washed with water, cultured in Weigert's iron hematoxylin for 5 minutes, then washed with tap water, and cultured in Biebrich scarlet/acid fuchsin solution for […]. Without washing, the slides were re-cultured with aniline blue for 30 minutes. The slides were then washed with water and cultured in acetic acid for 3-5 minutes.
# It was also dehydrated in graded alcohol, washed in xylene, and then mounted to a class slide using a mounting medium. The slides were visualized, and images were filmed with the Olympus BX53 system microscope (Olympus, life science solution, Waltham, Massachusetts (02453)).
# hyaluronan = test: Hyaluronan staining (alcian blue) in gastric cancer tissue; details: gastric cancer tumor tissue; versus control; FIG. 3B
# Experimental: Hyaluronan staining was performed using alcian blue stain kit (Vector laboratories, Burlingame, CA 94010, Alcian Blue (pH 2.5), Stain kit, H-3501). The tissues were sectioned to a thickness of 20 μm. The sections were washed with water to remove excess OCT. Acetic acid was treated to tissue sections for 3 minutes, and then Alcian blue solution was treated at 37° C. for 30 minutes. Excess staining was removed by washing with acetic acid. It was then washed with tap water for 2 minutes and then with distilled water for 1-2 minutes. In addition, the nuclear fast red solution was treated for 5 minutes, and washing was followed with tap water and then with distilled water. The slides were dehydrated in graded alcohol and removed from xylene, and then a cover slip was mounted. The slides were visualized, and images were filmed with Olympus BX53 system microscope (Olympus, life science solution, Waltham, Massachusetts (02453)).
smiles,measurement,setting,value
CCCCc1nc(Cl)c(CO)n1Cc1ccc(-c2ccccc2-c2nn[nH]n2)cc1 [losartan],tumor growth response,gastric cancer (NCI-N87),tumoricidal response
same,collagen (masson trichrome staining),collagen,reduced collagen
same,hyaluronan (alcian blue staining),hyaluronan,reduced hyaluronan
